In brackets after ≈: the same amount, converted by molar mass.
Experiments:
[1] = test system: Escherichia coli IFO 3044; assay: Minimal inhibitory concentration (MIC) of preservative solutions, serial dilution in culture medium, read with the naked eye; format: cell-based; details: IFO3044, 72 h, E. coli IFO 3044, 10^5 cfu/ml, 35°C, 3 days
Procedure: (§1) Thus, two culture media are prepared by adding 0% and 5% of a-cyclodextrin, respectively, to a 1/15 M phosphate buffer (pH 6.5) containing 2% of Polypeptone (Daigo Nutritive Chemicals Ltd., Japan). The preservative is added to each medium and the resulting solution is diluted serially with each of the respective media to give solutions differing in preservative concentration. The test organisms are added to these solutions to a final concentration of 10^5 cfu/ml (cfu: colony forming unit).

[2] = test system: Aspergillus niger ATCC 9642; assay: as above; format: cell-based; details: ATCC9642, 120 h, A. niger ATCC 9642, 10^5 cfu/ml, 25°C, 5 days
Procedure: as §1

[3] = pH 6.5, Culture medium + 5% α-cyclodextrin
[4] = pH 6.5, Culture medium without addition of cyclodextrin

SMILES | MIC [1, 3] | MIC [1, 4] | MIC [2, 3] | MIC [2, 4]
Oc1ccc(Cl)cc1 [p-Chlorophenol, p-chlorophenol] | 400 mg/L | 200 mg/L (≈ 1560 µM) | 400 mg/L | 200 mg/L (≈ 1560 µM)
CCCCOC(=O)c1ccc(O)cc1 [Butylparaben] | 4000 mg/L | 125 mg/L (≈ 644 µM) | 4000 mg/L | 125 mg/L (≈ 644 µM)
Cc1cc(O)ccc1Cl [p-Chloro-m-cresol, p-chloro-m-cresol] | 200 mg/L | 200 mg/L (≈ 1400 µM) | 200 mg/L | 100 mg/L (≈ 701 µM)

Next, values leading:

MIC [1, 3] | MIC [1, 4] | MIC [2, 3] | MIC [2, 4] | SMILES
150 mg/L | 100 mg/L (≈ 639 µM) | 75 mg/L | 50 mg/L (≈ 319 µM) | Cc1cc(O)cc(C)c1Cl [p-Chloro-m-xylenol, p-chloro-m-xylenol]
4000 mg/L | 250 mg/L (≈ 1390 µM) | 4000 mg/L | 125 mg/L (≈ 694 µM) | CCCOC(=O)c1ccc(O)cc1 [Propylparaben]
4000 mg/L | 500 mg/L (≈ 3290 µM) | 4000 mg/L | 500 mg/L (≈ 3290 µM) | COC(=O)c1ccc(O)cc1 [Methylparaben]
4000 mg/L | 500 mg/L (≈ 3010 µM) | 4000 mg/L | 250 mg/L (≈ 1500 µM) | CCOC(=O)c1ccc(O)cc1 [Ethylparaben]
